Experimental data taken from patent US9175305B2, “Mutant hydroxyphenylpyruvate dioxygenase polypeptides and methods of use” (Syngenta Participations AG, priority 2009, dated 2015).
Several values for one entry are separate records, joined by “and”; a condition that tells them apart may be missing. Identical values can stand only once.

Tests used:
[1] = biological target: HPPD SEQ ID NO:14 (Avena sativa, UniProt A0ACD5V6K6, DEL109-109); assay: biochemical; type: binding
Protocol: (§1) On rates (governed by an association rate constant, kon) for the formation of the enzyme: inhibitor complexes, EI and off rates (governed by a dissociation rate constant, koff) were determined by methods known in the art and essentially as described in Hawkes et al. (2001) Proc. Bright. Crop. Prot. Conf. Weeds, 2:563-568 and in PCT Patent App. Pub. No. WO 02/46387).
(§2) For example, on rates were measured by, at zero time, adding ˜60 pmoles HPPD to 50 mM BisTrisPropane buffer at pH7.0 and at 25° C. containing 25 mM Na ascorbate, 4 μg/ml bovine catalase (Sigma, St. Louis, Mo.) and an excess (˜300 pmoles) of ^14C inhibitor in a total assay volume of 425 μl and, at various time points (0-180 s), quenching the radiolabel binding reaction by addition and rapid mixing of 100 μl ‘cold’ 1 mM structure A. Protein samples quenched at different times were then exchanged into 50 mM BisTrisPropane buffer at pH 7.0 containing 0.1M KCl by rapid chromatography down a NAP5 G25 Sephadex column (GE Healthcare Ltd, Buckinghamshire UK) and the amount of ^14C bound to protein fractions quantified in Optiphase scintillant using a Tri-Carb 2900TR scintillation counter (Perkin Elmer, Wellesley, Mass.). The data were fit according to the scheme below in order to derive the value of the apparent second order rate constant, k2, governing the association rate of enzyme and radiolabelled inhibitor. A range of enzyme and inhibitor concentrations were used. […] Further example methods are described in PCT Patent App. Pub. No. WO 02/46387.
(§3) Off rates (k1 in the scheme below) were derived from exchange rate studies where either the test inhibitor, I, or its exchange partner, J were radiolabelled and the data fit according to the scheme below. As noted in Hawkes et al. (2001) Proc. Bright. Crop. Prot. Conf.
(§4) After 30 minutes the exchange reaction was initiated with addition of 100 μl 1 mM ‘cold’ structure A with thorough mixing, and, immediately, 150 μl were withdrawn and loaded onto a NAP5 column, the protein exchanged into 50 mM BisTrisPropane buffer at pH 7.0 containing 0.1M KCl by rapid (<2 min) chromatography down a NAP5 G25 Sephadex column (GE Healthcare Ltd, Buckinghamshire UK) and the amount of ^14C bound to protein measured by Optiphase scintillant using a Tri-Carb 2900TR scintillation counter (Perkin Elmer, Wellesley, Mass.). Further aliquots were removed and measured in the same way at various times over minutes or hours as required in order to determine the exchange kinetics.
(§5) After 30 minutes the reaction vessel was transferred to ice. After a further 10 minutes at ice temperature the exchange reaction was initiated by addition of 100 μl 1 mM Structure A, with thorough mixing, and 150 μl was withdrawn and loaded onto a NAP5 column in a cold room at ˜5-8° C. in order to quantify the amount of radiolabel remaining bound to the protein at various time from the start of exchange at ice temperature.
(§6) Off rates (k1) of HPPD inhibitors that are not available radiolabelled or that present other measurement problems (for example high levels of background non-specific protein-binding which can be measured as radiolabel binding that persists in the presence of high concentrations of ‘cold’ inhibitor) may be measured indirectly. […] Exemplary methods are also described in PCT Patent App. Pub. No. WO 02/46387.

[2] = biological target: HPPD SEQ ID NO:24 (Avena sativa, UniProt A0ACD5V6K6, DEL109-109/L359M); assay: biochemical; type: binding; settings: relative to SEQ ID NO:14
Protocol: as §1, §2, §3, §4, §5, §6

[3] = tested on: soybean event 1 (vector 15764) expressing SEQ ID NO:14; assay: herbicide spray test on soybean events; type: in vivo; settings: event 1/SEQ#14, V2 growth stage, 14 DAT, average of n=7
Excerpt: (§7) Each data point represents the average damage score from n=7 replicates.
(§8) These events were used to compare the performance of five 17147 events. Four of these, SF, S8, S7 and S3 had not been preselected for tolerance level (other than to confirm resistance, non-chimerical nature and the presence of the gene) while the remaining event, T0, had been preselected as the most resistant out of five 17147 events in a preliminary field test.
(§9) Plants were in 4×4×4 inch plastic pots and grown under a 15/9 hour light regime (daylight supplemented by artificial light in greenhouses) at a minimum night-time temperature of 18° C. and maximum daytime temperature of 27° C. Soil was regular VBRC mix (1:1 mixture of Vero field soil and Fafard Mix II) where Vero field soil is 98% sand and 2% clay. […] Spray volume was 150 L/ha and the damage scores reflect assessments at 14 DAT.

[4] = tested on: soybean event 2 (vector 15764) expressing SEQ ID NO:14; assay: herbicide spray test on soybean events; type: in vivo; settings: event 2/SEQ#14, V2 growth stage, 14 DAT, average of n=7
Excerpt: as §7, §8, §9

[5] = tested on: soybean event S3 (vector 17147) expressing SEQ ID NO:24; assay: herbicide spray test on soybean events; type: in vivo; settings: event S3/SEQ#24, V2 growth stage, 14 DAT, average of n=7
Excerpt: as §7, §8, §9

[6] = tested on: soybean event S7 (vector 17147) expressing SEQ ID NO:24; assay: herbicide spray test on soybean events; type: in vivo; settings: event S7/SEQ#24, V2 growth stage, 14 DAT, average of n=7
Excerpt: as §7, §8, §9

[7] = tested on: soybean event S8 (vector 17147) expressing SEQ ID NO:24; assay: herbicide spray test on soybean events; type: in vivo; settings: event S8/SEQ#24, V2 growth stage, 14 DAT, average of n=7
Excerpt: as §7, §8, §9

[8] = tested on: soybean event SF (vector 17147) expressing SEQ ID NO:24; assay: herbicide spray test on soybean events; type: in vivo; settings: event SF/SEQ#24, V2 growth stage, 14 DAT, average of n=7
Excerpt: as §7, §8, §9

[9] = tested on: soybean event T0 (vector 17147) expressing SEQ ID NO:24; assay: herbicide spray test on soybean events; type: in vivo; settings: event T0/SEQ#24, V2 growth stage, 14 DAT, average of n=7
Excerpt: as §7, §8, §9

[10] = tested on: Jack w/t; assay: herbicide spray test on soybean; type: in vivo; settings: V2 growth stage, 14 DAT, average of n=7
Protocol: as §7, §9

[11] = tested on: HPPD SEQ ID NO:26; assay: biochemical; type: binding, Avena sativa; settings: off rate, FIGS. 4A-4C
Protocol: as §1
For example, on rates were measured by, at zero time, adding ˜60 pmoles HPPD to 50 mM BisTrisPropane buffer at pH7.0 and at 25° C. containing 25 mM Na ascorbate, 4 μg/ml bovine catalase (Sigma, St. Louis, Mo.) and an excess (˜300 pmoles) of ^14C inhibitor in a total assay volume of 425 μl and, at various time points (0-180 s), quenching the radiolabel binding reaction by addition and rapid mixing of 100 μl ‘cold’ 1 mM structure A. Protein samples quenched at different times were then exchanged into 50 mM BisTrisPropane buffer at pH 7.0 containing 0.1M KCl by rapid chromatography down a NAP5 G25 Sephadex column (GE Healthcare Ltd, Buckinghamshire UK) and the amount of ^14C bound to protein fractions quantified in Optiphase scintillant using a Tri-Carb 2900TR scintillation counter (Perkin Elmer, Wellesley, Mass.). The data were fit according to the scheme below in order to derive the value of the apparent second order rate constant, k2, governing the association rate of enzyme and radiolabelled inhibitor. […]

[12] = tested on: G408A mutant of HPPD SEQ ID NO:14; assay: time course of inhibition of enzyme activity; type: biochemical, Avena sativa
[13] = tested on: control SEQ ID NO:14 HPPD; assay: time course of inhibition of enzyme activity, control enzyme; type: biochemical, Avena sativa; settings: artifact of the method due to fast off rate during the 150 s assay
[14] = tested on: tobacco plants expressing HPPD SEQ ID NO:14; assay: herbicide spray test on transgenic tobacco; type: in vivo; settings: 13 DAT
[15] = tested on: tobacco plants expressing HPPD SEQ ID NO:24; assay: herbicide spray test on transgenic tobacco; type: in vivo; settings: 13 DAT
[16] = tested on: E. coli BL21 cells expressing HPPD SEQ ID NO:24; type: cell-based; settings: 20 ppm sulcotrione (data not shown)
Protocol: (§10) Cells were grown from a 10% starting inoculum into 0.5 ml of L-broth containing 50 μg of kanamycin ml^−1 in […] for 48-96 h at 15° C. Typically pyomelanin colour in the medium was read (at 430 nm) after ˜72 h.

[17] = tested on: E. coli cells expressing mutant G408A; settings: 25 ppm sulcotrione
Protocol: as §10

[18] = 300 g/ha, smaller-sized population
[19] = 500 g/ha, larger-sized population

HPPD SEQ ID NO:14, sequence (A0ACD5V6K6 entry or part of it DEL109-109): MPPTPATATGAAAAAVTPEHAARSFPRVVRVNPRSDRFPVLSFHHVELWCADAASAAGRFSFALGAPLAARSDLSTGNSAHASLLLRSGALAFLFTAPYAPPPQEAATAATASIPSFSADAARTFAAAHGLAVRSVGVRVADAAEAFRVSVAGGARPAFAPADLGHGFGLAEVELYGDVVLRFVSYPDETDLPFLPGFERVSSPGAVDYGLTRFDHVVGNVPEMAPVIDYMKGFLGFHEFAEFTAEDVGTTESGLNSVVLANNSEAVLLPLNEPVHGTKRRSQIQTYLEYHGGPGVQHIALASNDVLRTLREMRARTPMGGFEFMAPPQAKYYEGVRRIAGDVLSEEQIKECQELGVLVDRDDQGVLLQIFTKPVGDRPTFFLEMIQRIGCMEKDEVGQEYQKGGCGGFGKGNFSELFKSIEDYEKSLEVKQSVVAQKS
HPPD SEQ ID NO:24, sequence (A0ACD5V6K6 entry or part of it DEL109-109/L359M): as the sequence (A0ACD5V6K6 entry or part of it DEL109-109) above, with L358M counted along it

SMILES: CS(=O)(=O)c1ccc(C(=O)C2C(=O)CCCC2=O)c(Cl)c1COCC(F)(F)F [E, tembotrione]
- Kd [1]: 0.321 nM
- Off rate k1 ([1]; 25° C., indirect radiochemical method, average and individual experiments): 5.5e-05 s⁻¹ and 2.85e-05 s⁻¹
- Kd/Km ratio ([1]; HPPD SEQ ID NO:14): 0.000059
- koff ([1]; read-out: Off rate k1, 25° C., indirect radiochemical method, average and individual experiments): 4.17e-05 s⁻¹
- kon ([1]; read-out: On rate k2): 130000 M⁻¹ s⁻¹
- SEQ ID NO:24 superior to SEQ ID NO:14 (in vitro, in particular off rate data) [2]: neutral
- % dam. ([3]; E 368 g/ha): 36.4%
- % dam. ([4]; E 368 g/ha): 52.1%
- % dam. ([5]; E 368 g/ha): 51.4%
- % dam. ([6]; E 368 g/ha): 41.4%
- % dam. ([7]; E 368 g/ha): 80%
- % dam. ([8]; E 368 g/ha): 97.1%
- % dam. ([9]; E 368 g/ha): 39.3%
- % dam. ([10]; E 368 g/ha): 84.3%

SMILES: CS(=O)(=O)c1ccc(C(=O)C2C(=O)CCCC2=O)c([N+](=O)[O-])c1 [Structure B, mesotrione]
- dissociation from HPPD SEQ ID NO:26 compared with HPPD SEQ ID NO:24 [11]: about twice as fast
- residual activity ([12]; 0.6 μM B, enzyme about 75 nM, incubation up to 260 s, inhibition levelled off): about 35%
- radiochemically determined off rate compared with control SEQ ID NO:14 HPPD ([12]; ice temperature): indistinguishable
- extent of inhibition compared with the control enzyme ([12]; inhibitor at 0.15 or 0.6 μM): to a lesser extent
- residual activity [13]: ~8%
- plants exhibiting visible herbicide damage (number of plants) [14, 18]: 4 of 26
- plants exhibiting damage [14, 19]: 27%
- plants exhibiting visible herbicide damage (number of plants) [15, 18]: 2 of 28
- plants exhibiting symptoms of herbicide damage [15, 19]: 10%
- plants exhibiting symptoms of herbicide damage (number of plants) [15, 19]: 4 of 38
- % dam. ([3]; B 420 g/ha): 11.4%
- % dam. ([3]; B 840 g/ha): 9.3%
- % dam. ([4]; B 420 g/ha): 20.7%
- % dam. ([4]; B 840 g/ha): 22.1%
- % dam. ([5]; B 420 g/ha): 15.3%
- % dam. ([5]; B 840 g/ha): 15.3%
- % dam. ([6]; B 420 g/ha): 10.6%
- % dam. ([6]; B 840 g/ha): 6.9%
- % dam. ([7]; B 420 g/ha): 18.6%
- % dam. ([7]; B 840 g/ha): 19.3%
- % dam. ([8]; B 420 g/ha): 15.7%
- % dam. ([8]; B 840 g/ha): 25%
- % dam. ([9]; B 420 g/ha): 8.3%
- % dam. ([9]; B 840 g/ha): 5.3%
- % dam. ([10]; B 420 g/ha): 82.9%
- % dam. ([10]; B 840 g/ha): 83.6%

SMILES: CS(=O)(=O)c1ccc(C(=O)C2C(=O)CCCC2=O)c(Cl)c1 [sulc, sulcotrione]
- tolerance in pyomelanin assay [16]: enhanced tolerance
- resistance in pyomelanin assay [17]: resistance relative to HPPD SEQ ID NO:14
